Here are results for 3 compounds from PMC3978604 (Arthritis Research & Therapy, 2013).

Structures are written as SMILES. Read-outs that look alike come from different tables or passages of the source.

One data set concerns the target SYK (Homo sapiens, UniProt P43405). The data set is described as follows: Whole blood assays of SYK inhibition. Format: cell-based.
For data set [1], the system named is panel of 392 wild-type (non-mutant) protein kinases. The data set is described as follows: KINOMEscan ATP binding site competition assay, kinase panel selectivity. The settings on record: including JAK and vascular endothelial growth factor receptor; data not shown.
Data set [2] has as its system human PBMCs, CD3+ T cells. The data set can be described thus: IL-2-induced STAT5 phosphorylation in CD3+ T cells (flow cytometry). Format: cell-based. As to conditions: for effect on phosphorylation of STAT5: at 1 μM, IL-2 stimulated CD3+ T cells. (In general: In flow cytometry, cells or beads pass a laser one at a time.)
Method: (§2) Human PBMCs were pre-incubated with compound for 30 minutes followed by 20 minutes stimulation with IL-2 (100 ng/ml) for signal transducers and activators of transcription 5 (STAT5) phosphorylation or IFNγ (100 ng/ml) for STAT1 phosphorylation.
For data set [3], the system named is human plasmacytoid dendritic cells. The data set is described as follows: TLR9-mediated pDC activation (ODN2216, 2 days). Format: cell-based. The settings on record: human pDCs, concentration-dependent. The procedure:
Human plasmacytoid dendritic cells (pDCs) were isolated by negative selection from PBMCs with the human pDC Isolation Kit (Miltenyi Biotec, Auburn, CA, USA). The purity was confirmed with CD303 (BDCA-2; Miltenyi Biotec) staining and stimulated with ODN2216 (1 μM) for 2 days. The production of IFNα and TNFα was measured by AlphaLISA.

In data set [4] the test system is mouse whole blood B220+ B cells. The data set is described as follows: Ex vivo anti-IgD-induced CD69 expression on B220+ B cells in whole blood of dosed CIA mice. The settings on record: 2 and 5 hours post dose.
A further data set deals with Ramos cells. The data set is described as follows: Western blot of anti-IgM induced phosphorylation of BTK, PLCγ2, AKT and ERK. The settings on record: 1 μM pretreatment. Background: In western blotting, separated proteins are transferred to a membrane and probed.
In a further data set the target is JAK3 (Homo sapiens, UniProt P52333). The data set is described as follows: KINOMEscan ATP binding site competition assay. As to conditions: 1 μM compound; truncated recombinant JAK3.
Chain of JAK3 (P52333 811-1124 limits assumed): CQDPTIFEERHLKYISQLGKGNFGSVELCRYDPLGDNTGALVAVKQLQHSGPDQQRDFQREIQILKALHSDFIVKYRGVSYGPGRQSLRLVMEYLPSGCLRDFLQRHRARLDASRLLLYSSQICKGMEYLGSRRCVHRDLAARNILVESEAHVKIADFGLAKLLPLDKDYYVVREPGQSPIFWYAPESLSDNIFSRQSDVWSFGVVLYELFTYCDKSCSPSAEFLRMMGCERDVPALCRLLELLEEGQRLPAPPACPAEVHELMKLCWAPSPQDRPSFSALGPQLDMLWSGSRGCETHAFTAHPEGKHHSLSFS
Data set [5] relates to mouse bone marrow macrophages. The data set is described as follows: RANK-L/M-CSF mediated osteoclastogenesis, TRAP+ multinuclear cells. Format: cell-based. The settings on record: in the presence of more than 0.4 μM. The method, then: Bone marrow cells were obtained from C57BL/6 mouse tibiae and suspended in culture medium supplemented with monocyte colony-stimulating factor (100 ng/ml) for 16 hours. […] The cells were stained using a tartrate-resistant acid phosphate (TRAP) staining kit (Sigma, St Louis, MO, USA). TRAP^+ multinuclear cells were counted for each well under a microscope.

Another data set has as its system JAK1. The data set is described as follows: KINOMEscan ATP binding site competition assay. As to conditions: 1 μM compound; truncated recombinant JAK1.
Data set [6] relates to DBA1/J mice with collagen-induced arthritis. The data set can be described thus: Murine collagen-induced arthritis model (mCIA). Format: in vivo, mouse. The procedure: The mCIA model has been reported previously. Briefly, DBA1/J male mice were injected intradermally with 0.1 ml bovine type II collagen (100 μg; Chondrex Inc., Redmond, WA, USA) and complete Freund’s adjuvant (200 μg; Difco, Detroit, MI, USA) followed by second immunization on day 21 with bovine type II collagen and incomplete Freund adjuvant. […] Clinical arthritis scores (1 to 4) of individual paws were assessed and the arthritic index for each mouse was determined by adding the individual scores of all four paws. The level of cytokines in serum was determined by Luminex analysis (Millipore, Billerica, MA, USA). Hind paws from CIA mice were collected into 10% neutral buffered formalin. After decalcification in 10% formic acid, paws were embedded in paraffin, sectioned at 8 μm and stained with toluidine blue. Inflammation (infiltration of inflammatory cells), pannus, cartilage damage, and bone resorption were scored in a double-blinded fashion by a board-certified pathologist at Boulder BioPATH, Inc. (Boulder, CO, USA) using standard criteria, with 0 being normal and 5 being the most severe.

Data set [7] concerns human PBMCs, CD14+ monocytes. The data set is described as follows: IFNγ-induced STAT1 phosphorylation in CD14+ monocytes (flow cytometry). Format: cell-based. As to conditions: IFNγ-treated CD14+ monocytes; except at the highest concentration tested (10 μM).
Method: as §2
Another data set has as its system Ramos B-cell line. The data set is described as follows: cells. The settings on record: Homo sapiens, read-out: IC50, anti-IgM-activated calcium flux. The procedure:
Baseline fluorescence was recorded for about 20 seconds followed by stimulation with mouse anti-human IgM (10 μg/ml, clone M2E6; Antibody Solutions Inc., Mountain View, CA, USA) for Ramos cells or mouse anti-human CD3 (10 μg/ml; BD Biosciences) for Jurkat cells, and the maximal fluorescent counts in each well were recorded.

A short description of data set [8]: Pharmacokinetics after single oral dosing in mouse. As to conditions: plasma. Format: in vivo.
A further data set has as its system human monocytes. The data set is described as follows: cells. As to conditions: Monocyte. The method, then:
Peripheral blood mononuclear cells (PBMCs) were isolated by centrifugation from heparinized blood in a Vacutainer CPT Cell Preparation Tube (BD Biosciences). PBMCs were cultured for 1 to 2 hours to allow monocytes to adhere, and nonadherent cells were washed away. The monocytes were stimulated with human IgG-coated (Jackson Immunology, West Grove, PA, USA) copolymer microsphere beads (Thermo Scientific, Fremont, CA, USA) or lipopolysaccharide (1 ng/ml; Sigma-Aldrich) for 4 hours. TNFα levels in supernatants were determined by enzyme-linked immunosorbent assay kits (BD Biosciences).

For another data set, the system named is human B cells. The data set can be described thus: TLR9-mediated plasmablast differentiation (ODN2006 + IL-2, 6 days). Format: cell-based. The method, then: Human B cells were differentiated with ODN2006 (50 nM) and IL-2 (10 ng/ml) for 6 days. The differentiated cells were stained with V450 anti-CD38, FITC anti-CD20, PE anti-CD19 and APC intracellular IgM. The plasmablasts were identified as CD19^+CD38^+CD20^–IgM^+ cells. The production of IgG and IgM was quantitated by AlphaLISA.

Another data set relates to human mast cells. The data set is described as follows: cells. As to conditions: Mast cell, read-out: IC50, IgE/antigen-induced histamine release. The procedure:
The method has been reported previously by our group. […] For measuring histamine release, cells were sensitized with 0.1 μg/ml anti-4-hydroxy-3-nitrophenylacetyl hapten IgE (Serotec, Raleigh, NC, USA) overnight, and then cross-linked with 1 μg/ml NP(30)-BSA (Biosearch Technologies, Novato, CA, USA) for 30 minutes. Supernatants were collected and assayed for histamine release using a histamine enzyme immunoassay (Oxford Biomedical Research, Rochester Hills, MI, USA). The percentage of histamine release was calculated by comparing various treatments with positive control.

A further data set deals with human PBMCs. The data set is described as follows: cells. As to conditions: PBMC, read-out: IC50, BCR-dependent cell surface CD69 expression in CD20+ B cells. The method, then: (§1) The samples were stained with PE mouse anti-human CD20 and APC mouse anti-human CD69. The percentage of activated (CD69^hi) B cells was determined using unstimulated (negative control) and stimulated (positive control) samples as references.

Another data set concerns human whole blood. The data set is described as follows: cells. The settings on record: B-cell, read-out: IC50, BCR-dependent cell surface CD69 expression in CD20+ B cells. The procedure:
as §1

In a further data set the test system is Jurkat T-cell line. The data set is described as follows: Anti-CD3-induced calcium flux (FLIPR). Format: cell-based. The settings on record: Homo sapiens, read-out: IC50, T-cell receptor (anti-CD3)-induced calcium flux. Background: Calcium flux is commonly read through the fluorescence of an indicator in the cells.

From the text for Ramos cells: The protein phosphorylation was detected with rabbit antibodies of anti-phospho-BTK(Y223) (Epitomics Inc., Burlingame, CA, USA), anti-phospho-PLCγ2(Y1217), anti-phospho-ERK(T202/Y204) or anti-phospho-AKT(S473).

Take `COc1cc(Nc2ncc(F)c(Nc3ccc4c(n3)N(COP(=O)(O)O)C(=O)C(C)(C)O4)n2)cc(OC)c1OC` [R788]: on SYK, the “SYK inhibition in whole blood assays” value is listed as “relatively weak”. In addition, the “kinase selectivity in the KinaseScan assay” value in [1] is given as “inhibiting one-half of the kinome”.
Regarding `C[C@@H]1CCN(C(=O)CC#N)C[C@@H]1N(C)c1ncnc2[nH]ccc12` [tofacitinib, reference compound], the “effect on phosphorylation of STAT5” value in [2] is on record as “completely blocked”.
As to `Cc1ccc(Nc2cc(N[C@@H]3CCCC[C@@H]3N)nnc2C(N)=O)nc1C` [RO9021, 6-[(1R,2S)-2-amino-cyclohexylamino]-4-(5,6-dimethyl-pyridin-2-ylamino)-pyridazine-3-carboxylic acid amide], in data set [3], the “production of IFNα” value was “inhibited”. Besides, in data set [3], the “production of TNFα” value was “inhibited”. The “anti-IgD-induced CD69 expression on B cells (B220+), ex vivo” value in [4] is “inhibited”. Also, the “anti-IgM induced phosphorylation of BTK, PLCγ2, AKT and ERK” value in the data set with Ramos cells was “inhibited”. Also, the “competition with compound (JAK3)” value at JAK3 was “more than 90%”. Also, in data set [5], the “TRAP+ cells” value was “barely detectable”. Further, the “competition with compound (JAK1)” value with JAK1 was “more than 90%”. Also, the IC50 in [2] (Homo sapiens, T-cell, read-out: IC50, IL-2-induced STAT5 phosphorylation) came to 1320 ± 660 nM; with Ramos B-cell line it was 78 ± 21 nM; with human monocytes (4 h, read-out: IC50, TNFα production induced by crosslinking of FcγR) it was 63 ± 19 nM; with human monocytes (read-out: IC50, TLR4-dependent TNFα production) it was 2900 ± 900 nM; with human mast cells it was 22.8 ± 1.7 nM; in the data set on human PBMCs, 83 nM. Besides, the IC50 is 87 nM in the data set on human whole blood and 910 ± 270 nM in the data set with Jurkat T-cell line. For the same compound, the “effect on phosphorylation of STAT5” value in [2] is on record as “no significant effect”. In addition, the “histopathology of hind paws (inflammation, pannus, cartilage damage, bone resorption)” value in data set [6] (5 and 45 mg/kg orally daily for 14 days) was “vehicle-treated, but not RO9021-treated, mice had severe inflammation and cartilage damage”. In addition, the “arthritis progression, clinical scores” value in [6] (5 and 45 mg/kg orally daily for 14 days from day 21, significant in both groups vs vehicle) is reported as “inhibited arthritis progression in a dose-dependent manner”. In addition, in [6] (after 14 days of treatment), the “serum level of IL-6” value is on record as “markedly reduced”. Besides, in [6] (after 14 days of treatment), the “serum level of KC(CXCL1)” value is reported as “markedly reduced”. Moreover, the “effect on phosphorylation of STAT1” value in data set [7] is given as “no effect”. Further, the AUC (in general, concentration integrated over time) is 3.85 µM·h in data set [8] (single oral dose 5 mg/kg) and 35.8 µM·h in data set [8] (single oral dose 45 mg/kg). For the same compound, the Cmax (in general, the maximum level reached in the sampled fluid or tissue) in [8] (single oral dose 5 mg/kg) was found to be 0.695 µM; in data set [8] (single oral dose 45 mg/kg), 5.76 µM. The Tmax (usually the time from dosing to the highest level) in data set [8] (single oral dose 5 mg/kg) stood at 60 min; in data set [8] (single oral dose 45 mg/kg), 30 min. Besides, the values for the half-life in [8] (single oral dose 5 mg/kg) and in data set [8] (single oral dose 45 mg/kg) were 260 min and 212 min, respectively. In the data set on human B cells, the “production of IL-6 in the supernatant” value is listed as “reduced”. In addition, in the data set with human B cells, the “production of IgG in the supernatant” value is “reduced”. Moreover, the “production of IgM in the supernatant” value in the data set on human B cells is on record as “reduced”.
